Measurements: patent US12714576B2, “System and method for treatment of bone” (SHANKAR RAJESWARAN M.D. LLC, priority 2020, dated 2026)
Values joined by “and” are separate entries in the source; they are usually repeats but may differ in a detail not shown here. Equal entries are not always repeated.

System: unicameral bone cyst (UBC)
Experiment: Retrospective evaluation of pediatric patients with UBC treated by doxycycline chemical curettage (sclerotherapy) and injection of synthetic bone graft
Format: in vivo
Method: Summary. Retrospective evaluation of twelve pediatric patients, ages 5-14 years, undergoing treatment for a UBC, at a single institution. All UBCs were treated in a single, minimally invasive, image guided procedure using percutaneous needle access into the UBC followed by chemical curettage (a form of sclerotherapy) and injection of regenerative synthetic graft. Patients were followed clinically, and with serial radiographs, to evaluate for healing and complications. Mean time to return to full activity was 2.2 months post procedure, with a mean clinical follow-up time of 9.2 months.
Methods. Fifteen patients were initially enrolled in this IRB approved study from August 2018 through May 2020. The diagnosis of UBC was made via radiographs and/or magnetic resonance imaging (MRI).
Combination sclerotherapy and graft injection with CaSO4—CaPO4 was performed in a single setting as an outpatient procedure with an average procedure time of 45 minutes (range 30-60 minutes). Mean volume of doxycycline instilled during cyst sclerotherapy was 52 mL (20 mg/ml and a range 20-100 mL). Mean volume of CaSO4—CaPO4 synthetic graft material administered was 28 mL (range 4-90 mL).
Patients were followed clinically for a minimum of three months post procedure, with radiographs performed at follow-up visits. One patient was excluded as they had imaging consistent with a fractured UBC that had subsequently rehealed into multiple cysts, and 2 other patients were excluded secondary to follow up of less than 3 months.
Assessment of treatment response was evaluated using the Modified Neer Classification of Radiographic Healing, as shown above in Table 1. All radiographs were evaluated by four attending pediatric radiologists.
Procedure Technique. All procedures were performed under general anesthesia. For each procedure, the cyst was localized under fluoroscopy, and the upper and lower margins of the cyst were marked on the skin. Ultrasound mapping of the area of concern was performed to identify critical structures such as arteries or nerves. However, the cyst itself could often be visualized sonographically due to associated cortical thinning.
A 5 mm incision was made at each cyst margin as marked on the skin, and an 11-gauge or 14-gauge “treatment” needle was advanced into the cyst percutaneously. Choice of needle gauge was determined by cyst size and the expected amount of synthetic graft to be administered, with 11-gauge needles used in larger cysts. A second 5 mm incision was made along the remaining marked margin of the lesion, and a 14-gauge or 16-gauge “venting” needle was placed.
Next, Omnipaque-180 (GE Healthcare), a water-soluble iodinated contrast, was diluted with sterile saline in a 1:1 ratio and was injected via the treatment needle during fluoroscopic visualization, taking care to ensure fluid egress via the venting needle. Contrast injection was performed to confirm a cystic nature of the UBC, to ensure adequate diffusion of the injected contrast throughout the cystic cavity, as well as to assess the presence of unexpected significant vascular outflow. Occasionally, an incomplete septation within the cyst was encountered, likely secondary healing change related to a prior pathologic fracture or prior treatment.
Doxycycline (20 mg/mL), in a volume to match the cyst volume, was injected through the treatment needle and aspirated through the venting needle in a push-pull fashion, irrigating the cyst for one minute. The doxycycline was allowed to dwell for another nine minutes. A second round of sclerosant irrigation was then performed using similar technique and fresh doxycycline solution; thus, the total duration of doxycycline sclerotherapy was 20 minutes.
Utilizing the cyst volume determined during initial contrast injection, a similar volume of synthetic bone graft material was prepared and injected through the treatment needle during live fluoroscopy. […]

## C[C@H]1c2cccc(O)c2C(=O)C2=C(O)[C@]3(O)C(=O)C(C(N)=O)=C(O)[C@@H](N(C)C)[C@@H]3[C@@H](O)[C@@H]21 [doxycycline]
10 of 12 patients, most recent follow-up radiographs
  Patients with healing of the UBC (Modified Neer class 1): 83%
11 of 12 patients, most recent follow-up
  Patients showing healed cysts (Modified Neer classes 1 or 2): 91.7%
12 patients
  Adverse events related to the procedures: no adverse events related to the procedures
  Perioperative complications: No perioperative complications were observed
One line per patient (patients 1-12), doxycycline 20 mg/mL sclerotherapy followed by CaSO4-CaPO4 synthetic graft (PRO-DENSE)
  Return to Activities (mo): 1.0 mo and 0.8 mo and 1.9 mo and 2.1 mo and 1.3 mo and 1.6 mo (2×) and 1.2 mo and 3.1 mo and 4.8 mo and 2.8 mo and 3.7 mo
One of 12 patients, most recent follow-up radiographs
  Patients with healing with a small defect (Modified Neer class 2): 8%
